Laboratory results from US7074802B2, “Pyrimidine derivatives as selective inhibitors of cox-2” (Glaxo Group Limited, priority 2001, dated 2006).

How the values were obtained:
microsomal h-COX2 = target: T1, microsomal h-COX2 (Homo sapiens, UniProt P35354); experiment: Microsomal assay, inhibition of COX-2; type: biochemical; conditions: microsomal preparation from baculovirus infected SF9 cells; PGE2 by EIA
T1 construct: made in house; host or cells: baculovirus infected SF9 cells (microsomal preparation)
T1 sequence (P35354 18-604): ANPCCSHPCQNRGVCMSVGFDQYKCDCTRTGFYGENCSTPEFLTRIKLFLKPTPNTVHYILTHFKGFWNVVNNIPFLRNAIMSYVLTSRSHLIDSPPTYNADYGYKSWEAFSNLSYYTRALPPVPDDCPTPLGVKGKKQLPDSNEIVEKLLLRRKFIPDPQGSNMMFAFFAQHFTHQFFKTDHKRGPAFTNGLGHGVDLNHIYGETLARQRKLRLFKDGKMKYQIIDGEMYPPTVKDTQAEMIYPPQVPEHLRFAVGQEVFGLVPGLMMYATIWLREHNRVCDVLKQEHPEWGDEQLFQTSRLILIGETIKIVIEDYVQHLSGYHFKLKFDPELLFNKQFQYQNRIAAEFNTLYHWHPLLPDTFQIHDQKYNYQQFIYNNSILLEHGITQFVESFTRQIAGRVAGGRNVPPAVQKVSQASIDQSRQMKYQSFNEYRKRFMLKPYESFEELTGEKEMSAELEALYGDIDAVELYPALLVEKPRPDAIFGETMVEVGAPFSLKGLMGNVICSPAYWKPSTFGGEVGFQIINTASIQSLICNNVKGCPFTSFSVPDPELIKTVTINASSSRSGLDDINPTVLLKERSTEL
Method: (§1) Inhibitory activity against microsomal h-COX2 was assessed against a microsomal preparation from baculovirus infected SF9 cells. An aliquot of microsomal preparation was thawed slowly on ice and a 1/40,000 dilution prepared from it into the assay buffer (sterile water, degassed with argon containing 100 mM HEPES (pH 7.4), 10 mM EDTA (pH7.4), 1 mM phenol, 1 mM reduced glutathione, 20 mg/ml gelatin and 0.001 mM Hematin). Once diluted the enzyme solution was then sonicated for 5 seconds (Branson sonicator, setting 4, 1 cm tip) to ensure a homogeneous suspension. 155 μl enzyme solution was then added to each well of a 96-well microtitre plate containing either 5 μl test compound (40× required test concentration) or 5 μl DMSO for controls. Plates were then mixed and incubated at room temperature for 1 hour. Following the incubation period, 40 μl of 0.5 μM arachidonic acid was added to each well to give a final concentration of 0.1 μM. Plates were then mixed and incubated for exactly 10 minutes (room temperature) prior to addition of 25 μl 1M HCl (hydrochloric acid) to each well to stop the reaction. 25 μl of 1M NaOH (sodium hydroxide) was then added to each well to neutralise the solution prior to determination of PGE2 levels by enzyme immunoassay (EIA).
(§2) The following IC50 values for inhibition of COX-2 and COX-1 were obtained from the microsomal assay for compounds of the invention: […]

COX-1 = COX-1 (Homo sapiens, UniProt P23219); experiment: Microsomal assay, inhibition of COX-1; type: biochemical
COX-1, sequence (P23219 24-599): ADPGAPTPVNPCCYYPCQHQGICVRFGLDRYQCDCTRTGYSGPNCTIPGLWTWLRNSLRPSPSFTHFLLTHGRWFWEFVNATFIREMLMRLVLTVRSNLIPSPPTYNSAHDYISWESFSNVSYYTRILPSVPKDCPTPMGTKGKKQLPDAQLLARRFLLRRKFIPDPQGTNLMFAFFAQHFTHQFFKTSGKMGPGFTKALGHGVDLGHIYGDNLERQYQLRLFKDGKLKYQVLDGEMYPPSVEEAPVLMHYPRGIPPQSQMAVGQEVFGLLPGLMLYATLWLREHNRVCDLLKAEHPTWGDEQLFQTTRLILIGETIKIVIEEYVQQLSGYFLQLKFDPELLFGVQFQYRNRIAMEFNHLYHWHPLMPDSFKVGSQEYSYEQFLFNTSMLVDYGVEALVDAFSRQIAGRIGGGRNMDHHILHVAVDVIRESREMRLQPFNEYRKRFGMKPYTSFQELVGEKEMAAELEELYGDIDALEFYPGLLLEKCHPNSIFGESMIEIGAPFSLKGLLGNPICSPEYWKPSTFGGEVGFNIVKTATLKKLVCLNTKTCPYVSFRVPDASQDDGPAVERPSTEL
Method: as §1, §2

IC50 (microsomal h-COX2)	IC50 (COX-1)	SMILES
761 nM	> 10000 nM	CCCCNc1nc(CF)cc(-c2ccc(S(C)(=O)=O)cc2)n1 [Example 1, N-Butyl-4-(fluoromethyl)-6-[4-(methylsulfonyl)phenyl]pyrimidin-2-amine]
17 nM	> 94000 nM	CCCCNc1nc(-c2ccc(S(C)(=O)=O)cc2)cc(C(F)F)n1 [Example 2, N-butyl-4-(difluoromethyl)-6-[4-(methylsulfonyl)phenyl]pyrimidin-2-amine]
